From ChEMBL document CHEMBL1146213, “Biscembranoids and their probable biogenetic precursor from the Hainan soft coral Sarcophyton tortuosum” (J Nat Prod, 2007)
The source made the active and inactive calls.

What was measured:
A549 = assay: Antitumor activity against A549 cells; type: functional, cell-based; settings: Homo sapiens
P388 = assay: Antitumor activity against P388 cells; type: functional, cell-based; settings: Mus musculus
Cladosporium cucumerinum = assay: Antifungal activity against Cladosporium cucumerinum; type: functional, organism-based

Measured: Activity

C=C1CC[C@@H]2O[C@@H]1CC/C(C)=C/[C@@H]1C(=C(C)C[C@H]3C(=O)C[C@H](C)CCC[C@H](C)C(=O)C[C@H](C(C)C)C(=O)C[C@@]13C(=O)OC)[C@H](O)C[C@@]2(C)O
inactive: all assays above

COC(=O)[C@@]12CC(=O)[C@@H](C(C)C)CC(=O)[C@@H](C)CCC[C@@H](C)CC(=O)[C@@H]1CC(C)=C1[C@H](O)C[C@@]3(C)O[C@@H]3CC[C@@]3(C)O[C@@H]3CC/C(C)=C/[C@H]12
inactive: all assays above

COC(=O)[C@@]12CC(=O)[C@@H](C(C)C)CC(=O)[C@@H](C)CCC[C@@H](C)CC(=O)[C@@H]1CC(C)=C1[C@H](O)C[C@@](C)(Cl)[C@@H](O)CC[C@@]3(C)O[C@@H]3CC/C(C)=C/[C@H]12
inactive: all assays above

COC(=O)[C@@]12CC(=O)[C@@H](C(C)C)CC(=O)[C@@H](C)CCC[C@@H](C)/C=C3\O[C@@](C)(C[C@@H]31)/C1=C/C[C@](C)(O)[C@H]3CC[C@@](C)(O3)[C@H](O)CC/C(C)=C/[C@H]12
inactive: all assays above

COC(=O)[C@@]12CC(=O)[C@@H](C(C)C)CC(=O)[C@@H](C)CCC[C@@H](C)CC(=O)[C@@H]1CC(C)=C1[C@H](O)C[C@](C)(Cl)[C@H]3CC[C@@](C)(O3)[C@H](O)CC/C(C)=C/[C@H]12
inactive: all assays above

COC(=O)/C1=C/C(=O)C[C@H](C)CCC[C@H](C)C(=O)C[C@H](C(C)C)C(=O)C1
inactive: all assays above
